The star is where a group is joined. Cbz = O=C(OCc1ccccc1)*; CH2F = FC*
Legend:
Assay type in all cases: cell-based, human
BLIN cell lines = experiment: Enhancement of apoptosis in BLIN cell lines (flow cytometry)
Description: (§1) Flow cytometry. Quantitation of apoptotic events was conducted using a FACS Calibur (BD Immunocytometry Systems). All analyses were conducted on cells with lymphoid light scatter characteristics (i.e., low to medium forward scatter and low 90° side scatter).
i. Mitochondrial transmembrane potential (Δψm). The cationic lipophilic fluorescent dye tetramethylrhodamine, ethyl ester, perchlorate (TMRE) was purchased from Molecular Probes, Inc. (Eugene, Oreg.). TMRE has a high degree of membrane permeability and accumulates into mitochondria in accord with the Nernstian equation (Farkas Biophys J. 1989;56:1053-1069). Cells were washed once and re-suspended to 0.5-1.0×10^6/ml in X-VIVO 10. TMRE was added to a final concentration of 50 nM and the cells were incubated in the dark at 37° C. for 15 minutes. Cells were then washed 2× in PBS, resuspended in PBS containing 2 μg/ml of propidium iodide (PI), and immediately analyzed. The protonophore […] (50 μM, CCCP, Sigma) was used as a positive control to effect loss of Δψm in 100% of cells.
ii. YO-PRO-1. The green fluorescent DNA intercalant dye YO-PRO-1 (Idziorek J Immunol Methods. 1995;185:249-258) was purchased from Molecular Probes as the Vybrant Apoptosis Assay Kit #4. Dual staining with YO-PRO and PI allows for the detection of early apoptotic cells (YO-PRO+/PI−) that have undergone initial changes in permeability to small molecules. Cells were stained according to the manufacturers recommendations.
(§2) iii. Annexin V. FITC-labeled Annexin V (BD Pharmingen, San Diego, Calif.) was used to detect external phosphatidylserine residues appearing on the external surface of early apoptotic cells (Koopman Blood. 1994;84:1415-1420). Cells were stained according to the manufacturers recommendations.
(§3) General experimental strategy. BLIN cell lines were removed from fibroblast monolayers, washed once and resuspended to 7.5×10^5/ml in X-VIVO 10. Two hundred μL of resuspended cells were added to 96-well flat-bottom microtiter plates (ISC Bioexpress, Kaysville, Vt.), followed by 0.5-1.0 μL of caspase inhibitors in DMSO. An identical volume of DMSO alone was added to separate wells as a vehicle control. This final DMSO concentration of 0.25-0.5% vol/vol had no adverse affect on any of the BLIN cell lines. At the indicated times the entire content of individual wells was harvested and stained in the fluorescent protocols described above.

BLIN-3 cells = experiment: Loss of mitochondrial transmembrane potential (TMRE) and YO-PRO permeability in BLIN-3; details: BLIN-3, FIG. 2
Description: Numbers in the histograms indicate the percentage of PI^- cells that underwent a loss of Δψm. Numbers in the contour plots indicate the percentage of Annexin V^+/PI^- cells. […] Numbers in the contour plots indicate the percentage of YO^- PRO^+/PI^- cells. Numbers in the histograms indicate the percentage of PI^- cells that underwent a loss of Δψm. Flow cytometry. Quantitation of apoptotic events was conducted using a FACS Calibur (BD Immunocytometry Systems). All analyses were conducted on cells with lymphoid light scatter characteristics (i.e., low to medium forward scatter and low 90° side scatter). i. Mitochondrial transmembrane potential (Δψm). The cationic lipophilic fluorescent dye tetramethylrhodamine, ethyl ester, perchlorate (TMRE) was purchased from Molecular Probes, Inc. (Eugene, Oreg.). TMRE has a high degree of membrane permeability and accumulates into mitochondria in accord with the Nernstian equation (Farkas Biophys J. 1989;56:1053-1069). Cells were washed once and re-suspended to 0.5-1.0×10^6/ml in X-VIVO 10. TMRE was added to a final concentration of 50 nM and the cells were incubated in the dark at 37° C. for 15 minutes. […] ii. YO-[…]. The green fluorescent DNA intercalant dye YO-PRO-1 (Idziorek J Immunol Methods. 1995;185:249-258) was purchased from Molecular Probes as the Vybrant Apoptosis Assay Kit #4. […]

[1] = system: RAMOS Burkitt lymphoma cell line; experiment: Apoptosis by Annexin V staining and flow cytometry, RAMOS; details: 50 μM, 18 hours
BLIN-2 cells = experiment: Apoptosis by Annexin V staining and flow cytometry, BLIN-2; details: BLIN-2, 50 μM, 18 hours
Description: as §1, §2, §3
The inventors carried out experiments to test the influence of specific amino acid substitutions on the proapoptotic activity Z-LEHD-fmk. […]

CD19+ B-cell precursors = experiment: Annexin V staining of sorted cord blood-derived CD19+ B-cell precursors removed from MS-5 stroma; details: cultured 18 hours, DMSO control 46.5 ± 1.4, Time 0 1.5
Description: Normal B-lineage cells. CD19+ B-lineage cells were derived from CD34+ human cord blood stem cells plated on the murine stromal cell line MS-5 (Itoh Exp Hematol. 1989;17:145-153). MS-5 stromal cells were kindly provided by Dr. Paul Kincade (University of Oklahoma Medical Research Foundation), following permission from Professor K. John Mori (Niigata University, Japan). FACS-purified CD34+/CD38+/lineage—cord blood hematopoietic stem cells were plated onto confluent, non-irradiated MS-5 stromal cells in 96-well flat-bottom plates (200 cells/well) containing Minimal Essential Medium supplemented with 10% FBS. Stem cell factor and G-CSF were added at 10 ng/ml (twice weekly) to enhance the emergence of CD19+ B-lineage cells (Nishihara Eur J Immunol. 1998;28:855-864; Ohkawara Leukemia. 1998;12:764-771). […] Wells were then pooled, stained with PE-conjugated anti-CD 19 + propidium iodide (PI), and sorted on a FACSVantage (BD Immunocytometry Systems, San Jose, Calif.). Cord blood CD34+/CD38+/lineage—cells were provided by Valerie McCullar and Dr. Jeff Miller of the University of Minnesota Cancer Center in accordance with the University of Minnesota Institutional Review Board on Human Subjects.
Flow cytometry. Quantitation of apoptotic events was conducted using a FACS Calibur (BD Immunocytometry Systems). […]

Z-LEHD-fmk (Cbz-LEHD-CH2F; SMILES CC(C)C[C@H](NC(=O)OCc1ccccc1)C(=O)N[C@@H](CCC(=O)O)C(=O)N[C@@H](Cc1c[nH]cn1)C(=O)N[C@@H](CC(=O)O)C(=O)CF) [C9i]
lowest concentration at which enhancement of apoptosis occurred (BLIN cell lines): 6.25 µM | promotion of apoptosis in healthy cells (BLIN cell lines; BLIN-3 and BLIN-4L maintained on adherent fibroblasts and/or IL-7, 8 hours): did not promote apoptosis | promotion of apoptosis in healthy cells (BLIN cell lines; BLIN-3 and BLIN-4L maintained on adherent fibroblasts and/or IL-7, 18 hours): promoted apoptosis | enhancement of apoptosis (YO-PRO+/PI− cells, reduced TMRE staining) versus concentration (BLIN-3 cells): dose-dependent | sensitivity (fold-increase in Annexin V+ cells vs DMSO) [1]: extremely sensitive | sensitivity (fold-increase in Annexin V+ cells vs DMSO) (BLIN-2 cells): less sensitive than the others | percentage of total Annexin V+ cells (PI+ and PI−), mean ± SD (CD19+ B-cell precursors): 56.0 ± 3.2 %

Reference: US20060040870A1, “Enhancement of apoptosis by caspase-9 inhibitors” (priority 2004, published 2006)
